# In PMC11397024, “Strategic Fluorination to Achieve a Potent, Selective, Metabolically Stable, and Orally Bioavailable Inhibitor of CSNK2” (Molecules, 2024):
# Columns and labels:
# Experiment in all cases: NanoBRET K192
# Type in all cases: cell-based
# Conditions in all cases: HEK293
# STK38 = target: T1, STK38 (Homo sapiens, UniProt Q15208)
# T1 construct: purchased Promega (NanoBRET Target Engagement K192 Kinase Selectivity System)
# In short: (§1)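 HEK293 cells were transfected overnight with NanoLuc–kinase fusion vectors, then treated for 2 h at 37 °C with compound (added as 100 μM working solution) plus K10 tracer. BRET was read at 450/610 nm after substrate and extracellular inhibitor, and fractional occupancy was calculated against no-compound controls.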
# NEK2 = target: T2, NEK2 (Homo sapiens, UniProt P51955)
# T2 construct: purchased Promega (NanoBRET Target Engagement K192 Kinase Selectivity System)
# In short: as §1
# CDK7 + pMB = target: T3, CDK7 + pMB (Homo sapiens, UniProt P50613)
# T3 construct: purchased Promega (NanoBRET Target Engagement K192 Kinase Selectivity System)
# In short: as §1
# BRSK1 = target: T4, BRSK1 (Homo sapiens, UniProt Q8TDC3)
# T4 construct: purchased Promega (NanoBRET Target Engagement K192 Kinase Selectivity System)
# In short: as §1
# PRKAA1 = target: T5, PRKAA1 (Homo sapiens, UniProt Q13131)
# T5 construct: purchased Promega (NanoBRET Target Engagement K192 Kinase Selectivity System)
# T5 sequence (Q13131 whole entry): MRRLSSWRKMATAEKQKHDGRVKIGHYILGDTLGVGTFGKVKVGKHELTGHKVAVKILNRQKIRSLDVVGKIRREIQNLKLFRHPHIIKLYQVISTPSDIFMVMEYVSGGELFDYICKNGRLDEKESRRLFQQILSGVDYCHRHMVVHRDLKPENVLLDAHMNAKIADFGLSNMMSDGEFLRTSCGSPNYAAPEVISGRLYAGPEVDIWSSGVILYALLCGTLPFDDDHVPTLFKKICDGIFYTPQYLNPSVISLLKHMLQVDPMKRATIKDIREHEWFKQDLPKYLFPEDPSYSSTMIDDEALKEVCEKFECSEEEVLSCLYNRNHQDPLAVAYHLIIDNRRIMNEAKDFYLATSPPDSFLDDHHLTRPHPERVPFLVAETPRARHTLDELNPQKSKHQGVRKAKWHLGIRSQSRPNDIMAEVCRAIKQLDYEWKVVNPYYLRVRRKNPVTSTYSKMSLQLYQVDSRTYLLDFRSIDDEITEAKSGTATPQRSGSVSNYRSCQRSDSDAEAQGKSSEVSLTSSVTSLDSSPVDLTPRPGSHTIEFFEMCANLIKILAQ
# In short: as §1
# JAK2 (V617F) = target: T6, JAK2 (V617F) (Homo sapiens, UniProt O60674, V617F)
# T6 construct: purchased Promega (NanoBRET Target Engagement K192 Kinase Selectivity System)
# T6 sequence (O60674 whole entry V617F): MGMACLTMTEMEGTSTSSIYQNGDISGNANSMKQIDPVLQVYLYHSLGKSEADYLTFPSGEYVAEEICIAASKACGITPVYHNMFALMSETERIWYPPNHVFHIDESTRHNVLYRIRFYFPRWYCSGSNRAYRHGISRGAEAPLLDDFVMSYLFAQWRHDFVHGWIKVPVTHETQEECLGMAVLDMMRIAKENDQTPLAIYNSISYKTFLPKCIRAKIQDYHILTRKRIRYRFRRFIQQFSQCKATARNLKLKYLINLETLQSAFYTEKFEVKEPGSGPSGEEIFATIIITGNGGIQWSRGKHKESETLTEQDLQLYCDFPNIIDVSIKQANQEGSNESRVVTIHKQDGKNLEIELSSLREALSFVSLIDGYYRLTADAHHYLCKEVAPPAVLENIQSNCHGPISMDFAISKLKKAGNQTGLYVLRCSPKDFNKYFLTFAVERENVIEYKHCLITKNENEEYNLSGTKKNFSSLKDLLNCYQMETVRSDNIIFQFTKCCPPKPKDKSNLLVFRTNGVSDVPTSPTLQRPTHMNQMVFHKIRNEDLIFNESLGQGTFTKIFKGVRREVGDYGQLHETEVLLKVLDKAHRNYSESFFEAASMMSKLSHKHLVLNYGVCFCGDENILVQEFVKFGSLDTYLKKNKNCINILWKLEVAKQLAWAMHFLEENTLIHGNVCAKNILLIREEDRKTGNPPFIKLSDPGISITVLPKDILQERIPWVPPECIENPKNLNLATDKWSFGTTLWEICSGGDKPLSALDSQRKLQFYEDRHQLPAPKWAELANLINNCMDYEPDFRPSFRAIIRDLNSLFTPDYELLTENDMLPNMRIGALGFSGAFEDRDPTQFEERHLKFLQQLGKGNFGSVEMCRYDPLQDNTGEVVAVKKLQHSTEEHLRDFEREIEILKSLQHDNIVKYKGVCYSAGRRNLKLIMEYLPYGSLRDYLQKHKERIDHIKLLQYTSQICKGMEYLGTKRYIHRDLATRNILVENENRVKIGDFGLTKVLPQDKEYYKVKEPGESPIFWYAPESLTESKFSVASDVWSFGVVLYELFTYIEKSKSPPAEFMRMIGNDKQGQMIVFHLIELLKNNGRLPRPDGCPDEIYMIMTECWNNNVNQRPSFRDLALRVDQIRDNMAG
# In short: as §1
# ERN1 = target: T7, ERN1 (Homo sapiens, UniProt O75460)
# T7 construct: purchased Promega (NanoBRET Target Engagement K192 Kinase Selectivity System)
# In short: as §1
# MAP3K11 = target: T8, MAP3K11 (Homo sapiens, UniProt Q16584)
# T8 construct: purchased Promega (NanoBRET Target Engagement K192 Kinase Selectivity System)
# In short: as §1
# CDKL3 = target: T9, CDKL3 (Homo sapiens, UniProt Q8IVW4)
# T9 construct: purchased Promega (NanoBRET Target Engagement K192 Kinase Selectivity System)
# In short: as §1
# MAP3K10 = target: T10, MAP3K10 (Homo sapiens, UniProt Q02779)
# T10 construct: host or cells: HEK293
# In short: as §1
# MAP3K19 = target: T11, MAP3K19 (Homo sapiens, UniProt Q56UN5)
# T11 construct: purchased Promega (NanoBRET Target Engagement K192 Kinase Selectivity System)
# In short: as §1
# STK33 = target: T12, STK33 (Homo sapiens, UniProt Q9BYT3)
# T12 construct: purchased Promega (NanoBRET Target Engagement K192 Kinase Selectivity System)
# In short: as §1
# INSR = target: T13, INSR (Homo sapiens, UniProt P06213)
# T13 construct: purchased Promega (NanoBRET Target Engagement K192 Kinase Selectivity System)
# In short: as §1
# MAP3K3 = target: T14, MAP3K3 (Homo sapiens, UniProt Q99759)
# T14 construct: purchased Promega (NanoBRET Target Engagement K192 Kinase Selectivity System)
# T14 sequence (Q99759 whole entry): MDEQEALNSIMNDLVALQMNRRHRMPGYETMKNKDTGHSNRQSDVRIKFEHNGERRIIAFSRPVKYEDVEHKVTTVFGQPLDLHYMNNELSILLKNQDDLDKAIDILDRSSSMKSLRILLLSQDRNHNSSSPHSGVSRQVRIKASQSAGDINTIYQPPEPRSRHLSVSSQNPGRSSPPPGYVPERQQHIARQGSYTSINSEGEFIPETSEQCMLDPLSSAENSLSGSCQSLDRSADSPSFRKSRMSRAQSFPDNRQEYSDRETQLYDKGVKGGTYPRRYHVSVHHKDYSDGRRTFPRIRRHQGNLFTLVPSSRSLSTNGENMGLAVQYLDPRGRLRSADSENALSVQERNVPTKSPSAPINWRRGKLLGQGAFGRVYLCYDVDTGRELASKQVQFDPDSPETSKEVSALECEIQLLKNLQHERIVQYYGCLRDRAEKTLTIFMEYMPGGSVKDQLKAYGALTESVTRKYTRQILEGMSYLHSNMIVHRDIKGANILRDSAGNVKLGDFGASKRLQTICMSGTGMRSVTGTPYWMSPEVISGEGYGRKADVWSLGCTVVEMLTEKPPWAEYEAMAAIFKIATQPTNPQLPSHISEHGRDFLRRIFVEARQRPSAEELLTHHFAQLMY
# In short: as §1
# EPHA4 = target: T15, EPHA4 (Homo sapiens, UniProt P54764)
# T15 construct: purchased Promega (NanoBRET Target Engagement K192 Kinase Selectivity System)
# T15 sequence (P54764 20-986): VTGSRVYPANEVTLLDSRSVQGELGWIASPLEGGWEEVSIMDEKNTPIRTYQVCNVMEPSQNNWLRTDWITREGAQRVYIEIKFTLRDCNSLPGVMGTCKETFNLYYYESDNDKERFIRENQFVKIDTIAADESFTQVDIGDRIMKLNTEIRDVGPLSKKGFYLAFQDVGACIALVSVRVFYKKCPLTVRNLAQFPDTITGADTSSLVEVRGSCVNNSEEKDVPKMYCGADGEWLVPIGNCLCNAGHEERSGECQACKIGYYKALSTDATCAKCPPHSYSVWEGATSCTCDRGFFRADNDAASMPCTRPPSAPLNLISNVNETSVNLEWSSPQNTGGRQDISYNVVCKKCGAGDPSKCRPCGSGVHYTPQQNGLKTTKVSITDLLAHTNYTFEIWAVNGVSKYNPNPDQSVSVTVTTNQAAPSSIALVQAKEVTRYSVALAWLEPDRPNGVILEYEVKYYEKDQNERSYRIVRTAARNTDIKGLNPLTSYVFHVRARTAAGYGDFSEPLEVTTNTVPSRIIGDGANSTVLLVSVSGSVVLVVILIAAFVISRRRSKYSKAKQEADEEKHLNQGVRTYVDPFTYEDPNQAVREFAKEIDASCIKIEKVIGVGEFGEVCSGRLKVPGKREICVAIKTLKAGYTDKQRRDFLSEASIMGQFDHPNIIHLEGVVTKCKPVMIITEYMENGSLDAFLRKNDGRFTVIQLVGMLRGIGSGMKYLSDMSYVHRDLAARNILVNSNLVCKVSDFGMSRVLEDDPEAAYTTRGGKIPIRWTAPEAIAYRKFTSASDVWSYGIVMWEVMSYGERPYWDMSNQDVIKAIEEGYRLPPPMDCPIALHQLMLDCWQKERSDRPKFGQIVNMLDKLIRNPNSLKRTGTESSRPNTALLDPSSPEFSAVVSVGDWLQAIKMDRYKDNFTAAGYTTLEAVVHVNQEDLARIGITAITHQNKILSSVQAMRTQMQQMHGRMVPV
# In short: as §1
# RET = target: T16, RET (Homo sapiens, UniProt P07949)
# T16 construct: purchased Promega (NanoBRET Target Engagement K192 Kinase Selectivity System)
# In short: as §1
# SGK1 = target: T17, SGK1 (Homo sapiens, UniProt O00141)
# T17 construct: purchased Promega (NanoBRET Target Engagement K192 Kinase Selectivity System)
# T17 sequence (O00141 whole entry): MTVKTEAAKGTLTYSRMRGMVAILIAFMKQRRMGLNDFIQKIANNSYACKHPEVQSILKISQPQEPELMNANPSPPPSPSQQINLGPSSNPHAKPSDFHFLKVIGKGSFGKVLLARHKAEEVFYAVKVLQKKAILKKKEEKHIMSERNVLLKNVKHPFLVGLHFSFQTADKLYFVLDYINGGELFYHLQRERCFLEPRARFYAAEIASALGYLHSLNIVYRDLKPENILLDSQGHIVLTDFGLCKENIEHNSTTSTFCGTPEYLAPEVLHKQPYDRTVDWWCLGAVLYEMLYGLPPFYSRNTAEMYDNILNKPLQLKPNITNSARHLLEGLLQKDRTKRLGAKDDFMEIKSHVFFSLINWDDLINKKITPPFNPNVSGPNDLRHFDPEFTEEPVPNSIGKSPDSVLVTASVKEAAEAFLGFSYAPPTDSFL
# In short: as §1
# MYLK4 = target: T18, MYLK4 (Homo sapiens, UniProt Q86YV6)
# T18 construct: purchased Promega (NanoBRET Target Engagement K192 Kinase Selectivity System)
# In short: as §1
# PRKAA2 = target: T19, PRKAA2 (Homo sapiens, UniProt P54646)
# T19 construct: purchased Promega (NanoBRET Target Engagement K192 Kinase Selectivity System)
# In short: as §1
# LATS1 = target: T20, LATS1 (Homo sapiens, UniProt O95835)
# T20 construct: purchased Promega (NanoBRET Target Engagement K192 Kinase Selectivity System)
# In short: as §1
# MAPK4 = target: T21, MAPK4 (Homo sapiens, UniProt P31152)
# T21 construct: purchased Promega (NanoBRET Target Engagement K192 Kinase Selectivity System)
# T21 sequence (P31152 whole entry): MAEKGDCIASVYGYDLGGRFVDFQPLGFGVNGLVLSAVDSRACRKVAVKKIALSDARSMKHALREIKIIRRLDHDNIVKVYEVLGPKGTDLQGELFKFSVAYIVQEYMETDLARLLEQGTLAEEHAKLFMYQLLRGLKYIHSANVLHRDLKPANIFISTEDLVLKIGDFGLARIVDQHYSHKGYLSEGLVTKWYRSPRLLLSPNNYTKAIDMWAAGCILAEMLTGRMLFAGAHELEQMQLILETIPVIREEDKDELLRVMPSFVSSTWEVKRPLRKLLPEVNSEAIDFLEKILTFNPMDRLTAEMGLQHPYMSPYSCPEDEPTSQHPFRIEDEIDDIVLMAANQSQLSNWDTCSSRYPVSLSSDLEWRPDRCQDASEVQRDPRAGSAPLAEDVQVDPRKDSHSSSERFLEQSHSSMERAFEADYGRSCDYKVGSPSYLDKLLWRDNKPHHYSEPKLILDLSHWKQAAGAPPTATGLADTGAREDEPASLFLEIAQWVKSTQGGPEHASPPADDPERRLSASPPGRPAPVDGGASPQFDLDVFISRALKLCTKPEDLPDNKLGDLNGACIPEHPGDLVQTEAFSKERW
# In short: as §1
# MAP3K4 = target: T22, MAP3K4 (Homo sapiens, UniProt Q9Y6R4)
# T22 construct: purchased Promega (NanoBRET Target Engagement K192 Kinase Selectivity System)
# In short: as §1
# CAMK2A = target: T23, CAMK2A (Homo sapiens, UniProt Q9UQM7)
# T23 construct: purchased Promega (NanoBRET Target Engagement K192 Kinase Selectivity System)
# In short: as §1
# LTK = target: T24, LTK (Homo sapiens, UniProt P29376)
# T24 construct: purchased Promega (NanoBRET Target Engagement K192 Kinase Selectivity System)
# In short: as §1
# CDKL2 = target: T25, CDKL2 (Homo sapiens, UniProt Q92772)
# T25 construct: purchased Promega (NanoBRET Target Engagement K192 Kinase Selectivity System)
# In short: as §1
# PAK6 = target: T26, PAK6 (Homo sapiens, UniProt Q9NQU5)
# T26 construct: purchased Promega (NanoBRET Target Engagement K192 Kinase Selectivity System)
# In short: as §1
# LIMK1 = target: T27, LIMK1 (Homo sapiens, UniProt P53667)
# T27 construct: purchased Promega (NanoBRET Target Engagement K192 Kinase Selectivity System)
# In short: as §1
# RON = target: T28, RON (Homo sapiens, UniProt Q04912)
# T28 construct: purchased Promega (NanoBRET Target Engagement K192 Kinase Selectivity System)
# In short: as §1
# T1 sequence (Q15208 whole entry): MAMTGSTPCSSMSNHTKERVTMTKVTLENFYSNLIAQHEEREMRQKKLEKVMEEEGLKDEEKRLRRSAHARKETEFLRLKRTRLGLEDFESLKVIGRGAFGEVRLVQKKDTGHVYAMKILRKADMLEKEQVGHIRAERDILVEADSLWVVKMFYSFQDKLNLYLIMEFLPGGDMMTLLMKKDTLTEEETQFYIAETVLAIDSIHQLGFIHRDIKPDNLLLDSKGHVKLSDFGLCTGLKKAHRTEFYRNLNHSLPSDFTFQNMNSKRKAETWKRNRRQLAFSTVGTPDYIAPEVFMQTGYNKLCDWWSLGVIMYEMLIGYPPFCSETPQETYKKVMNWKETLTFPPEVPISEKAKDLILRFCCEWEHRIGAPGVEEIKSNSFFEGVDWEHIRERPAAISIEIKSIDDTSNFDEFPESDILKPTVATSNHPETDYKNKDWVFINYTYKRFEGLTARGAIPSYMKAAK
smiles,measurement,setting,value
"CCC(=O)Nc1cc(Nc2cc(NC3CC3)n3ncc(C#N)c3n2)c(F)cc1N1CCC[C@H](NC)C1 [Compound 2, (S)-N-(5-((3-cyano-7-(cyclopropylamino)pyrazolo[1,5-a]pyrimidin-5-yl)amino)-4-fluoro-2-(3-(methylamino)piperidin-1-yl)phenyl)propionamide]",receptor occupancy at 10 µM,STK38,-0.8%
same,receptor occupancy at 10 µM,NEK2,4.2%
same,receptor occupancy at 10 µM,CDK7 + pMB,43.9%
same,receptor occupancy at 10 µM,BRSK1,17.7%
same,receptor occupancy at 10 µM,PRKAA1,3.8%
same,receptor occupancy at 10 µM,JAK2 (V617F),13.1%
same,receptor occupancy at 10 µM,ERN1,3%
same,receptor occupancy at 10 µM,MAP3K11,19.5%
same,receptor occupancy at 10 µM,CDKL3,19.4%
same,receptor occupancy at 10 µM,MAP3K10,-2.4%
same,receptor occupancy at 10 µM,MAP3K19,2.4%
same,receptor occupancy at 10 µM,STK33,26%
same,receptor occupancy at 10 µM,INSR,1.2%
same,receptor occupancy at 10 µM,MAP3K3,10.1%
same,receptor occupancy at 10 µM,EPHA4,7.8%
same,receptor occupancy at 10 µM,RET,1.8%
same,receptor occupancy at 10 µM,SGK1,1.5%
same,receptor occupancy at 10 µM,MYLK4,38.5%
same,receptor occupancy at 10 µM,PRKAA2,0.5%
same,receptor occupancy at 10 µM,LATS1,-0.4%
same,receptor occupancy at 10 µM,MAPK4,0.9%
same,receptor occupancy at 10 µM,MAP3K4,4.9%
same,receptor occupancy at 10 µM,CAMK2A,12.4%
same,receptor occupancy at 10 µM,LTK,4.2%
same,receptor occupancy at 10 µM,CDKL2,13.6%
same,receptor occupancy at 10 µM,PAK6,15.3%
same,receptor occupancy at 10 µM,LIMK1,6.6%
same,receptor occupancy at 10 µM,RON,7.6%
